Assay results published in patent US20240009266A1, “PHARMACEUTICAL COMBINATIONS COMPRISING A PEPTIDE CXCR4 INHIBITOR AND A TAXANE FOR TREATING CANCER” (POLYPHOR AG, priority 2020, published 2024).

How the values were obtained:
[1] = test system: breast cancer PDX Ma15169; conditions: for tumor growth inhibition / therapeutic effect (in words): Ma15169 PDX, humanized NOG-EXL mice, treatment day 154-182; for T/C value (treated-to-control tumor volume) at the last day of the study: day 183, Paclitaxel 10 mg/kg i.v. twice weekly, treatment from day 154, 29 days; for response rating according to RECIST criteria: from T/C at day 183 (last day of the study)
Method: The study was designed to determine the response of the breast cancer PDX Ma15169 to treatment with Paclitaxel single agent, Balixafortide single agent and the combination of both in humanized NOG-EXL mice. Humanized NOG-EXL mice bearing the breast cancer PDX Ma15169 were treated with Paclitaxel and Balixafortide according to Table 1. Ma15169 is a patient derived xenograft (PDX) that was from a patient with an invasive ductal carcinoma (ypT1a ypN1a R0 G3 L1 V1). The patient tumour was ER/PR as well as Her-2 negative. The tumour material was expanded in 9 donor mice (NOG, Taconic; https://www.taconic.com/mouse-model/ciea-nog-mouse) and fragments of about 10 mm3 were each implanted subcutaneously into the flank of 50 humanized NOG-EXL mice; at this time, the passage number of Ma15169 was #4.
Female NOG-EXL mice with an age of about 4 weeks were used for the constitution of human immune cells. 24 hours before CD34+ cell inoculation mice were irradiated with 1Gy. Human CD34+ cells were isolated from fresh cord blood within the laboratories of EPO (Experimental Pharmacology & Oncology Berlin-Buch GmbH, Berlin-Buch, Germany) and preserved in liquid nitrogen until use. For the study MV16883 a pool of 5 different donors (CB AG 101, CB AG 97, CB KR 104, CB AG 106, CB AG 107) prepared. After thawing the cells were washed with PBS, pooled and washed again followed by Trypan blue staining and cell counting using Neubauer chamber. A total of 5×10^4 vital cells were resuspended in 200 μl PBS and injected intravenously into the tail vain of all mice.
Determination of human immune cells by FACS was performed at days 46, 84 and 115 after cell inoculation (leucocytes CD45+, B cells CD19+, T cells CD3+, NK cells CD56+/CD16+ and monocytes CD14+; Human Immunophenotyping 8-color-Kit (Miltenyi)). The mice were weighed weekly and monitored for general health two times weekly.
The PDX Ma15169 is maintained by EPO (Experimental Pharmacology & Oncology Berlin-Buch GmbH, Berlin-Buch, Germany) as in vivo passage; the passage number for this study was #4. Donor mice (female NOG; Taconic) with tumors of about 1 cm3 were used for the preparation of this study MV16883.
After removal of the tumor tissue from donor mice, the tumors were cut into fragments (2-3 mm diameter—approximately 10 mm3) and placed in cooled RPMI 1640 culture medium until s.c. implantation within 30 minutes. The humanized NOG-EXL mice were anaesthetized with Etomidate and received a small incision in the skin of the left flank. The tumor fragments (one fragment/mouse) were implanted with tweezers and the incision closed with a suture clip (#310417, Covetrus GmbH). The clips were removed after seven days and mice controlled two times weekly by means of palpation. The implantation of tumor fragments was performed 122 days after the inoculation of CD34+ cells.
Tumor bearing mice were stratified into 4 treatment groups according to their tumor volumes at day 154 post CD34+ cell inoculation (32 days after tumor implantation). […] During stratification the animals were individually marked by earmarks.
Paclitaxel (Taxomedac™ comprising paclictaxel, citric acid, ethanol and PEG (30-50) castor oil) was given i.v. at a dose of 10 mg/kg twice weekly. Balixafortide was given s.c. at a dose of 20 mg/kg once daily for the first 5 days and twice daily for 5 days followed by treatment breaks of 2 days until the end of treatment period (FIG. 1). Total treatment duration was 29 days. Successful engraftment of human CD34+ cells was checked by flow cytometry (FACS).
Changes in the human immune cell population in blood were followed-up at the end of the study by FACS analysis.

human CXCR4 receptor = human CXCR4 receptor (Homo sapiens, UniProt P61073); test: In vitro receptor binding studies, human CXCR4 receptor
Sequence of human CXCR4 receptor (P61073 whole entry): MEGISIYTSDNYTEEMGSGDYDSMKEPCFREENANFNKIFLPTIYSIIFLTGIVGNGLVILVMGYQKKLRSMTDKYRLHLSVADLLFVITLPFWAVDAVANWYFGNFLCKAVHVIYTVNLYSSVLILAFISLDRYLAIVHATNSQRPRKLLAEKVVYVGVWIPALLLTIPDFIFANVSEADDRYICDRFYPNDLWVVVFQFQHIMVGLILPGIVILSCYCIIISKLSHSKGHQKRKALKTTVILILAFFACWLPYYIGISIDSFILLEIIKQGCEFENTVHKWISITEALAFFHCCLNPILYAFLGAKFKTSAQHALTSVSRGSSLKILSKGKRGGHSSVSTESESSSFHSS

[2] = test system: other potential target receptors; test: In vitro receptor binding studies, other receptors

Row | Compound | tumor growth inhibition / therapeutic effect (in words) [1] | T/C value (treated-to-control tumor volume) at the last day of the study ([1]; Balixafortide 20 mg/kg s.c.) | response rating according to RECIST criteria [1] | affinity for the human CXCR4 receptor (in words) (human CXCR4 receptor) | binding to other potential target receptors (in words) [2] | optimum T/C value ([1]; found at day 168, Balixafortide 20 mg/kg s.c., p>0.05)
1 | CC(=O)O[C@H]1C(=O)[C@@]2(C)[C@H]([C@H](OC(=O)c3ccccc3)[C@]3(O)C[C@H](OC(=O)[C@H](O)[C@@H](NC(=O)c4ccccc4)c4ccccc4)C(C)=C1C3(C)C)[C@]1(OC(C)=O)CO[C@@H]1C[C@@H]2O [Paclitaxel, reference compound] | significant tumor growth inhibition | 42% | stable disease | – | – | –
2 | Cyclo(-Tyr-His-Ala-Cys-Ser-Ala-^DPro-Dab-Arg-Tyr-Cys-Tyr-Gln-Lys-^DPro-Pro-) having a disulfide bond between Cys^4 and Cys^11 [Balixafortide] | inhibited tumor growth marginally | 107% | progressive disease | significant affinity | general lack of significant binding | 79%
